Results reported in patent US7045528B2, “Benzofused heterozryl amide derivatives of thienopyridines useful as therapeutic agents, pharmaceutical compositions including the same, and methods for their use” (Agouron Pharmaceuticals, Inc., priority 2002, dated 2006).
Where two headings read alike, the source gives them in different places.

Columns and labels:
[1] = molecular target: T1, unphosphorylated VEGF-R2Δ50 (FLVK) (Homo sapiens, UniProt P35968, DEL940-989/E990V); assay: VEGF-R2 coupled spectrophotometric assay, unphosphorylated VEGF-R2Δ50 (FLVK); assay type: biochemical; conditions: for inhibition at 0.1 µM: percent inhibition at 100 nM, library amides from Example 101 (R101), crude mixtures in DMSO, read-out: FLVK (% @ 100 nM); for inhibition at 0.05 µM: read-out: FLVK (% inh @ 50 nM)
T1 construct: VEGF-R2Δ50 contains residues 806–939 and 990–1171; made in house; host or cells: baculovirus/insect cell system
T1 sequence (P35968 with tags, fused parts or gaps DEL940-989/E990V limits assumed): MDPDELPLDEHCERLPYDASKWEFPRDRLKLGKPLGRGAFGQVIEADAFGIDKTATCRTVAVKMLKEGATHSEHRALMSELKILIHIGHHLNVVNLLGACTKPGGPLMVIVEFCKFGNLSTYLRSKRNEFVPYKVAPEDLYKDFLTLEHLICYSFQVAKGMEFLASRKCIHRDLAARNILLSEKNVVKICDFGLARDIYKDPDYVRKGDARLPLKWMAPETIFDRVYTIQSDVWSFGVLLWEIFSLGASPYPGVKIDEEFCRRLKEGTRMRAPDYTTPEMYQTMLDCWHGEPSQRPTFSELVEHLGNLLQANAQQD
Outline: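 Ki obtained by Morrison-equation fitting of activity at varied compound levels; reaction started with 5–40 nM enzyme. Non-autophosphorylated kinase construct (insect cell-expressed) with 3 mM ATP, 20 mM poly(E4Y1), 60 mM MgCl2 plus 2 mM MnCl2, pH 7.5 HEPES; NADH loss at 340 nm via PK/LDH coupling.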

[2] = molecular target: T2, FGF-R1 (Homo sapiens, UniProt P11362, C488A/C584S/L457V); assay: FGF-R spectrophotometric assay; assay type: biochemical; conditions: percent inhibition at 100 nM; library amides from Example 101 (R101), crude mixtures in DMSO
T2 construct: starting from the endogenous methionine residue 456 to glutamate 766; made in house; host or cells: baculovirus vector expression system
T2 sequence (P11362 456-766 L457V/C488A/C584S): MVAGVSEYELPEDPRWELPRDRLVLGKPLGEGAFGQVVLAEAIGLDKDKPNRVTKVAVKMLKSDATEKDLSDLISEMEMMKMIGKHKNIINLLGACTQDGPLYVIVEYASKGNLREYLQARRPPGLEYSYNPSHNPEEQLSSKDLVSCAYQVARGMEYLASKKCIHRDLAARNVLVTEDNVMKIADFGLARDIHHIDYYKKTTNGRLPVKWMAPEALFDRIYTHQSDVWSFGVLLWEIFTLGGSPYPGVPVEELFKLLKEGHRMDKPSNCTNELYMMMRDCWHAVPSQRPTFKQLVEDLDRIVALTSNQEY
Description: FGF-R1 Construct for Assay:
The intracellular kinase domain of human FGF-R1 was expressed using the baculovirus vector expression system starting from the endogenous methionine residue 456 to glutamate 766, according to the residue numbering system of Mohammadi et al., Mol. Cell. Bio., 16, 977–989 (1996). In addition, the construct also has the following 3 amino acid substitutions: L457V, C488A, and C584S.
The spectrophotometric assay was carried out as described above for VEGF-R2, except for the following changes in concentration: FGF-R=50 nM, ATP=2 mM, and poly(E4Y1)=15 mM.

[3] = molecular target: T3, PDGFRβ (Homo sapiens, UniProt P09619); assay: PAE-PDGFRβ phosphorylation in PAE-PDGFRB cells assay; assay type: cell-based
T3 construct: expressed in transfected cells; host or cells: porcine aorta endothelial (PAE)-PDGFRβ cells
T3 sequence (P09619 33-1106): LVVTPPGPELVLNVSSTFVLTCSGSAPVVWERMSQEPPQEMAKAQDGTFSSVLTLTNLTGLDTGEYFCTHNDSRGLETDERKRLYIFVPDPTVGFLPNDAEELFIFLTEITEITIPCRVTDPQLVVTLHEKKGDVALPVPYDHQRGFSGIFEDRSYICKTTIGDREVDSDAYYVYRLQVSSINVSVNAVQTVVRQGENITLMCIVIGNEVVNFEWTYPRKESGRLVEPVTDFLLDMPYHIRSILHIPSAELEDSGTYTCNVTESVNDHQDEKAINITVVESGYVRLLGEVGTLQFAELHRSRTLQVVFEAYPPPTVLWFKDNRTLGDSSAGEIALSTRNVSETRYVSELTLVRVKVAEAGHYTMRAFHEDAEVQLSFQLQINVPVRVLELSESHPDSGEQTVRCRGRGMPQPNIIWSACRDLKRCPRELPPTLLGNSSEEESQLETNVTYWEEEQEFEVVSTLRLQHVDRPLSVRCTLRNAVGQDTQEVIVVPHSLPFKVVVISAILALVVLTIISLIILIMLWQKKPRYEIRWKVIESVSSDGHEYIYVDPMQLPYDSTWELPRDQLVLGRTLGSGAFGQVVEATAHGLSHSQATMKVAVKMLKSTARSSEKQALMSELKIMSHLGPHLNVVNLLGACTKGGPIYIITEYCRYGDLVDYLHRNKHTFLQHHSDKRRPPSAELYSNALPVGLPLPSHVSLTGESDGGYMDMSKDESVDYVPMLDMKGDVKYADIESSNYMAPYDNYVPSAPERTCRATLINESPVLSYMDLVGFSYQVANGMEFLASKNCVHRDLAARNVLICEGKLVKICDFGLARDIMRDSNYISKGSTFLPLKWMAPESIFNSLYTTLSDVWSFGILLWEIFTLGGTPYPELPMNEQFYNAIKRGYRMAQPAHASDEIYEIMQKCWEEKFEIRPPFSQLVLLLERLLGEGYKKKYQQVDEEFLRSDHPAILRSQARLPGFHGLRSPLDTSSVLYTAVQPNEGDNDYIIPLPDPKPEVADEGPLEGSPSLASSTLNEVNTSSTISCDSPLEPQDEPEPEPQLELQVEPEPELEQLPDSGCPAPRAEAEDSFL
Outline: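 Inhibition of PDGF-BB-induced (1 μg/mL, 8 min, with 2 mM vanadate) PDGFRβ autophosphorylation in porcine aortic endothelial cells expressing the human receptor. Cells were starved 16 h and pretreated with compound 1 h at 37 °C. Lysates were captured with anti-PDGFRβ and probed with HRP-PY20 at 450 nm; four-parameter IC50.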

[4] = test system: human umbilical vein endothelial cells (HUVEC); assay: HUVEC+VEGF proliferation assay; assay type: cell-based; conditions: VEGF 6 ng/mL, 72 h, MTT
Outline: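 Exponentially growing passage 3–4 HUVEC were starved 24 h in F12K + 1% FBS, given compound (0.1% final DMSO) 1 h before 6 ng/mL final VEGF, then cultured 72 h. Proliferation was read as MTT dye reduction (4 h exposure), absorbance at 595 nm.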

[5] = test system: Huvec; assay: bFGF Huvec proliferation; assay type: cell-based, human
[6] = Mouse PK assay; assay type: in vivo; conditions: 50 mg/kg, B6 female mice, plasma; for AUC / Cmax: mouse, po
Description: The pharmacokinetics (e.g., absorption and elimination) of drugs in mice were analyzed using the following experiment. Test compounds were formulated as a suspension in a 30:70 (PEG 400:acidified H2O) vehicle. This solution was administered orally (p.o.) and intraperitoneally (i.p.) at 50 mg/kg to two distinct groups (n=4) of B6 female mice. Blood samples were collected via an orbital bleed at time points: 0 hour (pre-dose), 0.5 hr, 1.0 hr, 2.0 hr, and 4.0 hr post dose. Plasma was obtained from each sample by centrifugation at 2500 rpm for 5 min. Test compound was extracted from the plasma by an organic protein precipitation method. For each time bleed, 50 μL of plasma was combined with 1.0 mL of acetonitrile, vortexed for 2 min. and then spun at 4000 rpm for 15 min. to precipitate the protein and extract out the test compound. Next, the acetonitrile supernatant (the extract containing test compound) was poured into new test tubes and evaporated on a hot plate (25° C.) under a steam of N2 gas. To each tube containing the dried test compound extract, 125 μL of mobile phase (60:40, 0.025 M NH4H2PO4+2.5 mL/L TEA:acetonitrile) was added. The test compound was resuspended in the mobile phase by vortexing and more protein was removed by centrifugation at 4000 rpm for 5 min. Each sample was poured into an HPLC vial for test compound analysis on an Hewlett Packard 1100 series HPLC with UV detection. From each sample, 95 μL was injected onto a Phenomenex-Prodigy reverse phase C-18, 150×3.2 mm column and eluted with a 45–50% acetonitrile gradient run over 10 min. Test-compound plasma concentrations (μg/mL) were determined by a comparison to standard curve (peak area vs. conc. μg/mL) using known concentrations of test compound extracted from plasma samples in the manner described above. Along with the standards and unknowns, three groups (n=4) of quality controls (0.25 μg/mL, 1.5 μg/mL, and 7.5 μg/mL) were run to insure the consistency of the analysis. […] The quantitated test samples were plotted for visual display using Kalidagraph software and their pharmacokinetic parameters were determined using WIN NONLIN software.

[7] = library amides from Example 101 (R101), crude mixtures in DMSO, read-out: PAE PDGFR autophos IC50
[8] = 50 nM compound, unphosphorylated VEGF-R2Δ50
[9] = PAE cells overexpressing human PDGFRβ, PDGF-BB stimulated, read-out: PAE PDGFR autophos IC50 (nM) AVG

Row | inhibition at 0.1 µM [1] | inhibition at 0.1 µM [2] | IC50 [3, 7] | inhibition at 0.05 µM [1, 8] | Ki ([1]; unphosphorylated VEGF-R2Δ50) | mouse Cmin, po [6] | AUC [6] | Cmax [6] | IC50 [3, 9] | Compound | IC50 ([4]; Homo sapiens, HUVEC) | IC50 ([5]; Homo sapiens, HUVEC) | FLVK (% inh @ 50 nM) [1, 8] | IC50 [4] | IC50 ([5]; bFGF)
1 | – | – | – | 95% | 0.375 nM | – | – | – | 90.6 nM | Cc1sc2cc(Oc3ccnc4cc(-c5nccn5C)sc34)ccc2c1C(=O)NCC1CC1 [Example 119, 2-Methyl-6-{[2-(1-methyl-1-imidazol-2-yl)thieno[3,2-b]pyridin-7-yl]oxy}benzo[b]thiophene-3-carboxylic acid (cyclopropylmethyl)amide] | 1.46 nM | 1830 nM | – | – | –
2 | – | – | – | 94% | 0.403 nM | 105 ng/mL | 2350 ng·h/mL | 666 ng/mL | – | Cc1sc2cc(Oc3ccnc4cc(C(=O)N5CCC[C@H]5CO)sc34)ccc2c1C(=O)NC1CC1 [Example 8, 6-(2-[(S)-2-(hydroxymethyl)pyrrolidine-1-carbonyl]thieno[3,2-b]pyridin-7-yloxy)-2-methylbenzo[b]thiophene-3-carboxylic acid cyclopropylamide] | 1.37 nM | 504 nM | – | – | –
3 | – | – | – | 96% | 0.2 nM | – | – | – | 97 nM | Cc1sc2cc(Oc3ccnc4cc(C(=O)N5CCC5)sc34)ccc2c1C(=O)NCC1CC1 [Example 131, 6-{[2-(Azetidin-1-ylcarbonyl)thieno[3,2-b]pyridin-7-yl]oxy}-2-methylbenzo[b]thiophene-3-carboxylic acid (cyclopropylmethyl)amide] | 1.89 nM | 260 nM | – | – | –
4 | – | – | – | 96% | 0.59 nM | – | – | – | 336 nM | Cc1sc2cc(Oc3ccnc4cc(C(=O)N5CC[C@@H](O)C5)sc34)ccc2c1C(=O)NCC1CC1 [Example 126, 6[(2-{[(3R)-3-Hydroxypyrrolidin-1-yl]carbonyl}thieno[3,2-b]pyridin-7-yl)oxy]-2-methylbenzo[b]thiophene-3-carboxylic acid (cyclopropylmethyl)amide] | 10 nM | 5660 nM | – | – | –
5 | – | – | – | 100% | 0.2 nM | – | – | – | 102 nM | Cc1sc2cc(Oc3ccnc4cc(C(=O)N5CCC5)sc34)ccc2c1C(=O)NC1CC1 [Example 127, 6-{[2-(Azetidin-1-ylcarbonyl)thieno[3,2-b]pyridin-7-yl]oxy}2-methylbenzo[b]thiophene-3-carboxylic acid cyclopropylamide] | 1 nM | 41 nM | – | – | –
6 | – | – | – | 60% | 3.8 nM | – | – | – | 109 nM | Cc1c(C(=O)NCC2CC2)c2ccc(Oc3ccnc4cc(C(=O)N5CC[C@@H](O)C5)sc34)cc2n1C [Example 56] | 22 nM | 10000 nM | – | – | –
7 | – | – | – | 94% | 0.2 nM | – | – | – | 220 nM | Cc1sc2cc(Oc3ccnc4cc(C(=O)N5CC[C@@H](O)C5)sc34)ccc2c1C(=O)NC1CC1 [Example 121, 6[(2-{[(3R)-3-Hydroxypyrrolidin-1-yl]carbonyl}thieno[3,2-b]pyridin-7-yl)oxy]-2-methylbenzo[b]thiophene-3-carboxylic acid cyclopropylamide] | 0.24 nM | 100 nM | – | – | –
8 | – | – | – | 81% | 1.38 nM | – | – | – | 115 nM | CCCNC(=O)c1c(C)n(C)c2cc(Oc3ccnc4cc(C(=O)N5CC[C@@H](O)C5)sc34)ccc12 [Example 59, 6-[2-(3-Hydroxy-pyrrolidine-1-carbonyl)-thieno[3,2-b]pyridin-7-yloxy]-1,2-dimethyl-3H-indole-3-carboxylic acid propylamide] | 0.045 nM | 1160 nM | – | – | –
9 | – | – | – | 89% | 0.848 nM | – | – | – | 235 nM | CCc1oc2cc(Oc3ccnc4cc(C(=O)N5CC[C@@H](O)C5)sc34)ccc2c1C(=O)NC [Example 95, 2-Ethyl-6-[2-(3-hydroxy-pyrrolidine-1-carbonyl)-thieno[3,2-b]pyridin-7-yloxy]-benzofuran-3-carboxylic acid methylamide] | 10 nM | 96 nM | – | – | –

Continued, compound first:

Row | Compound | inhibition at 0.1 µM [1] | inhibition at 0.1 µM [2] | IC50 [3, 7] | inhibition at 0.05 µM [1, 8] | Ki ([1]; unphosphorylated VEGF-R2Δ50) | mouse Cmin, po [6] | AUC [6] | Cmax [6] | IC50 [3, 9] | IC50 ([4]; Homo sapiens, HUVEC) | IC50 ([5]; Homo sapiens, HUVEC) | FLVK (% inh @ 50 nM) [1, 8] | IC50 [4] | IC50 ([5]; bFGF)
10 | COc1ccc(NC(=O)c2c(C)oc3cc(Oc4ccnc5ccsc45)ccc23)c(OC)n1 | 92% | 1% | > 100 nM | – | – | – | – | – | – | – | – | – | – | –
11 | Cc1oc2cc(Oc3ccnc4ccsc34)ccc2c1C(=O)Nc1ccc2ncsc2c1 | 96% | 0% | > 100 nM | – | – | – | – | – | – | – | – | – | – | –
12 | CNC(=O)c1c(C)sc2cc(Oc3ccnc4cc(C(=O)N5C[C@H](OC)[C@H](OC)C5)sc34)ccc12 [Example 5, 6-(2-[meso-3,4-dimethoxypyrrolidine-1-carbonyl]thieno[3,2-b]pyridin-7-yloxy)-2-methylbenzo[b]thiophene-3-carboxylic acid methylamide] | – | – | – | 73% | 1.91 nM | 256 ng/mL | 12300 ng·h/mL | 6740 ng/mL | – | 1.55 nM | 235 nM | – | – | –
13 | Cc1sc2cc(Oc3ccnc4cc(-c5nc(CO)cs5)sc34)ccc2c1C(=O)NCC1CC1 [Example 130] | – | – | – | 95% | 0.39 nM | – | – | – | 335 nM | 0.49 nM | 100 nM | – | – | –
14 | Methoxy-azetidine-1-carbonyl)-thieno[3,2-b]pyridin-7-yloxy]-2-methyl-benzofuran-3-carboxylic acid methylamide [Example 78] | – | – | – | – | 0.221 nM | – | – | – | 14.8 nM | – | – | 93% | 0.507 nM | 30 nM
15 | CCc1oc2cc(Oc3ccnc4cc(C(=O)N5CCC[C@H]5CO)sc34)ccc2c1C(=O)NC [Example 97, 2-ethyl-6(2-[(S)-2-(hydroxymethyl)pyrrolidine-1-carbonyl]thieno[3,2-b]pyridin-7-yloxy)-benzofuran-3-carboxylic acid methylamide] | – | – | – | 70% | 4.84 nM | – | – | – | 293 nM | 10 nM | 223 nM | – | – | –
16 | CNC(=O)c1c(C)oc2cc(Oc3ccnc4cc(C(=O)N5CCC5)sc34)ccc12 [Example 77, 6[2-(Azetidine-1-carbonyl)-thieno[3,2-b]pyridin-7-yloxy]-2-methyl-benzofuran-3-carboxylic acid methylamide] | – | – | – | 99% | 0.2 nM | – | – | – | 7.4 nM | 0.2 nM | 8 nM | – | – | –
17 | CCc1sc2cc(Oc3ccnc4cc(-c5nccn5C)sc34)ccc2c1C(=O)NC [Example 134, 2-Ethyl 6-{[2-(1-methyl-1H-imidazol-2-yl)thieno[3,2-b]pyridin-7-yl]oxy}benzo[b]thiophene-3-carboxylic acid methylamide] | – | – | – | 94% | 1.44 nM | – | – | – | 177 nM | 0.656 nM | 1070 nM | – | – | –
